From US6673813B2, “Methods for identifying and treating resistant tumors” (priority 1994, dated 2004)

What was measured:
MRP = MRP (Homo sapiens, UniProt P33527); assay: ATP-dependent transport into membrane vesicles of MRP-overexpressing HL60/ADR cells; format: biochemical; set-up: HL60/ADR cells (human leukemia cells grown in adriamycin and overexpressing MRP); endogenous in cells; host or cells: HL60/ADR (Adriamycin-selected human HL60 leukemia cells), plasma membrane vesicles
Procedure: HL60/ADR cells (human leukemia cells grown in adriamycin and overexpressing MRP), revertant HL60 cells, and parental HL60 cells, respectively, were harvested by centrifugation after cultivation in cell culture and plasma membrane vesicles were prepared according to standard methods. Briefly, the cells were lysed by incubation in hypotonic buffer (0.5 mM sodium phosphate (pH 7.0), 0.1 mM EDTA supplemented with protease inhibitors) for 1.5 hours, followed by homogenization in a homogenizer. After centrifugation of the homogenate at 12,000×g(4° C., 10 minutes), the supernatant was centrifuged at 100,000×g at 4° C. for 45 minutes. […] After centrifugation at 280,000×g at 4° C. for 2 hours, the interphase was collected, washed by centrifugation in incubation buffer (100,000×g) and passed 20 times through a 27-gauge needle.
Membrane vesicles (50 μg of protein) were incubated in the presence of 4 mM ATP, 10 mM MgCl2, 10 mM of creatine phosphate, and the labeled substrate in an incubation buffer containing 250 mM sucrose and 10 mM Tris-HCl, pH 7.4. The final volume was 110 μl. Aliquots of 20 μl were taken at predetermined times and diluted in 1 ml of ice-cold incubation buffer. The dilute samples were filtered immediately through a nitrocellulose membrane (0.2 μm pore size), presoaked in incubation buffer using a rapid filtration device and rinsed twice with 5 ml incubation buffer. The filters were immersed in liquid and measured in a liquid scintillation counter. ATP was replaced by an equal concentration of 5′-AMP in a control experiment. All rates of the ATP-dependent transport were obtained by subtracting the values obtained in the presence of 5′-AMP from those measured in the presence of ATP.

HL60/ADR cells = assay: Assay for reversal of Adriamycin resistance (cell growth, MTS); format: cell-based, human; conditions: test compound in addition to Adriamycin, samples diluted to 20 μM, 25 μl per 100 μl well, 72 hours
Text: HL60/ADR is a continuous cell line, which was selected for Adriamycin™ resistance by culturing HL60, a human acute myeloblastic leukemia cell line, in increasing concentrations of Adriamycin™ until a highly resistant variant was attained. (McGrath, T., et al., Biochem. […] Marquardt, D. and Center, M. S., Cancer Res., 52: 3157, (1992); and Marquardt, D., et al., Cancer Res., 50: 1426, (1990)). […] Cells were harvested; washed twice with assay medium (same as culture media); counted; and diluted to 2×10^5 cells/ml in assay medium. Fifty μl of cells were aliquoted into wells of a 96 well tissue culture plate. One column of each 96 well plate served as a negative control and received assay medium containing no cells. Test compounds and references compounds were dissolved in dimethyl sulfoxide (DMSO) at a concentration of 5 mM. […] Assay standards were run in quadruplicate. 25 μl of 0.4% DMSO was added to four wells as a solvent control. […] The plates were incubated at 37° Centigrade for 72 hours in a humidified incubator with a 5% CO2 atmosphere. A CellTiter96 Aqueous Assay Kit (Promega) was used to measure cell viability and vitality via […] of a tetrazolium salt. The assay was performed in accordance with the vendors instructions, which required 2 ml of MTS reagent being mixed with 0.1 ml of PMS reagent and 20 μl of this solution was added to each well. The plates were incubated for 3 hours at 37° C. Absorbance was determined at 490 nm using a microtitre plate reader. The ability of a test compound to reverse the resistance of HL60/ADR cells to Adriamycin was determined by comparison of the absorbance of the wells containing a test compound in addition to Adriamycin with the absorbance of wells containing Adriamycin without a test compound. Controls were used to eliminate background and to ensure the results were not artifactual. The results of the assay are expressed as percent inhibition of cell growth.

Sequence of MRP (P33527 whole entry): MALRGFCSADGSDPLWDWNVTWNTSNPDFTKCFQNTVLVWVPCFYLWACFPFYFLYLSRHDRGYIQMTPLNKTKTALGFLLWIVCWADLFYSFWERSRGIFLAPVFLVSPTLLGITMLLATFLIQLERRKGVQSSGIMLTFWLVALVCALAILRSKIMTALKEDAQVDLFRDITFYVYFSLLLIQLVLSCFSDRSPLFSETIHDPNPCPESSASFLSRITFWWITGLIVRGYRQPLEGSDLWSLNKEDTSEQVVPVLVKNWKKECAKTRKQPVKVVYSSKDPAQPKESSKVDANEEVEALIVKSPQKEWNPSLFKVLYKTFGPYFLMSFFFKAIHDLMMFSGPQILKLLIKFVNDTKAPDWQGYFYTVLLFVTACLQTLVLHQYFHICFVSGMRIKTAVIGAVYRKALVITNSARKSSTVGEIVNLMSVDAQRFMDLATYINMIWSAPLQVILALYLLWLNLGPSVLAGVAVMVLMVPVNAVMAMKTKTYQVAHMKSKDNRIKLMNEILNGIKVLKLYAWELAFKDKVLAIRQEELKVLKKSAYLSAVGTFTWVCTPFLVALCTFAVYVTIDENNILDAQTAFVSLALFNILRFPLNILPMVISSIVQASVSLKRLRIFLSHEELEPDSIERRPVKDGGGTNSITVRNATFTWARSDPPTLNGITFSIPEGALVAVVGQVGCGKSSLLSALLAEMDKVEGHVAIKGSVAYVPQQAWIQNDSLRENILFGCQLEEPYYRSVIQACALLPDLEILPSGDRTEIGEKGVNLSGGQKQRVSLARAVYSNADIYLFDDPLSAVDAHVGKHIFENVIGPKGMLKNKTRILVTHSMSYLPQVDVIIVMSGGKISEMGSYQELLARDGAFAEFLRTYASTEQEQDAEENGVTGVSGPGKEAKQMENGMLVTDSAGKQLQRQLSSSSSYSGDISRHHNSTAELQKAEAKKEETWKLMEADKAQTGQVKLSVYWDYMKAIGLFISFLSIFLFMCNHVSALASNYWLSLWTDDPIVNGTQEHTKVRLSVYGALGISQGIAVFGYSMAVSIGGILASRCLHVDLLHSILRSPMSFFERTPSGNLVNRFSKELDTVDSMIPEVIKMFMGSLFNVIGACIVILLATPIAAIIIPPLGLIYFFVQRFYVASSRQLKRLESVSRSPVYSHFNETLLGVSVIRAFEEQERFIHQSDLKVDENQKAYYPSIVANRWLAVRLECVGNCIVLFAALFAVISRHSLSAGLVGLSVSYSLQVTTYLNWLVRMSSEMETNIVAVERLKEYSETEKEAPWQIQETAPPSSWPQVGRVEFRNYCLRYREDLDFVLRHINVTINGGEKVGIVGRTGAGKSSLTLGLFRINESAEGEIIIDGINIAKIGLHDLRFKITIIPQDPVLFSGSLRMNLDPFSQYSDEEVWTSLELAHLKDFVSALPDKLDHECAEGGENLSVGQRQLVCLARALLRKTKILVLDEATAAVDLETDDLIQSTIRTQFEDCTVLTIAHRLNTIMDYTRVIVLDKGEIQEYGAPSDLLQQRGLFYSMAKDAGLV

SMILES | melting point | % Inhibition (percent inhibition of cell growth) (HL60/ADR cells) | further results
CCCc1c(OCCCCOc2cc(O)c(-c3ccc(F)cc3)cc2CC)cccc1Oc1ccccc1C(=O)O (hydrate or solvate) [Example 9, 2-[2-Propyl-3-[4-[2-ethyl-5-hydroxy-4-(4-fluorophenyl)-phenoxy]butoxy]phenoxy]benzoic acid sesquihydrate] | 65 to 68 °C | – | –
CCCCc1c(OCCCOc2cc(O)c(-c3ccc(F)cc3)cc2CC)cccc1Oc1ccccc1C(=O)O (hydrate or solvate) [Example 11, 2-[2-Butyl-3-[3-[2-ethyl-5-hydroxy-4-(4-fluorophenyl)phenoxy]propoxy]phenoxy]benzoic acid hydrate] | 62 to 64 °C | – | –
CCCc1c(OCCCOc2cc(O)c(-c3ccc(F)cc3)cc2CC)cccc1S(=O)(=O)c1ccccc1C(=O)O (hydrate or solvate) [Example 17, 2-[2-Propyl-3-[3-[2-ethyl-4-(4-fluorophenyl)-5-hydroxyphenoxy]propoxy]phenylsulfonyl]benzoic acid hydrate] | 80 to 90 °C | – | –
CCCCC/C=C\C\C=C/C=C/C=C/[C@@H](Sc1ccc(C(=O)O)cc1)[C@@H](O)CCCC(=O)O [BAY u9773] | – | – | type of inhibition of ATP-dependent LTC4 transport (MRP; double-reciprocal (Lineweaver and Burk) plot): competitive inhibition; Ki (MRP; inhibition of ATP-dependent transport of LTC4, vesicles of MRP-overexpressing cells, 37° C., 2 minutes, read-out: inhibition constant (Ki)): 700 nM
CCCc1c(OCCCOc2cc(O)c(-c3ccc(F)cc3)cc2CC)ccc2c1OC(C(=O)O)CC2 (centres unmarked) [Example 1, 8-Propyl-7-[3-[4-(4-fluorophenyl)-2-ethyl-5-hydroxyphenoxy]propoxy]-3,4-dihydro-2H-1-benzopyran-2-carboxylic acid] | – | 54% | –
CCCc1c(OCCCOc2cc(O)c(-c3ccccc3)cc2CC)cccc1Oc1ccccc1C(=O)[O-].[Na+] [Example 2, 2-[2-Propyl-3-[3-(2-ethyl-5-hydroxy-4-phenylphenoxy)-propoxy]phenoxy]benzoic acid sodium salt hemihydrate] | – | 63% | –
CCCc1c(OCCCOc2cc([O-])c(-c3ccccc3)cc2CC)cccc1Oc1ccccc1-c1nnn[n-]1.[Na+].[Na+] [Example 3, 5-Ethyl-4-[3-[2-propyl-3-[2-(2H-tetrazol-5-yl)phenoxy]phenoxy]propoxy][1,1′-biphenyl]-2-ol disodium salt sesquihydrate] | – | 55% | –
CCCc1c(OCCCOc2cc([O-])c(-c3ccccc3)cc2CC)cccc1Oc1cccc(F)c1C(=O)[O-].[Na+].[Na+] [Example 4, 2-Fluoro-6-[2-propyl-3-[3-(2-ethyl-5-hydroxy-4-phenylphenoxy)propoxy]phenoxy]benzoic acid disodium salt] | – | 38% | –
CCCc1c(OCCCOc2cc(O)c(-c3ccc(F)cc3)cc2CC)cccc1Oc1ccccc1C(=O)[O-].[Na+] [Example 5, 2-[2-Propyl-3-[3-[2-ethyl-4-(4-fluorophenyl)-5-hydroxyphenoxy]propoxy]phenoxy]benzoic acid sodium salt] | – | 23% | –
CCCc1c(OCCCOc2cc(O)c(-c3ccc(F)cc3)cc2CC)cccc1Oc1cccc(F)c1C(=O)[O-].[Na+] [Example 6, 2-Fluoro-6-[2-propyl-3-[3-[2-ethyl-5-hydroxy-4-(4-fluorophenyl)phenoxy]propoxy]phenoxy]benzoic acid disodium salt hydrate] | – | 35% | –
CCCc1c(OCCCOc2cc(O)c(-c3ccc(F)cc3)cc2CC)cccc1Oc1cc(F)ccc1C(=O)O [Example 7, 4-Fluoro-2-[2-propyl-3-[3-[2-ethyl-5-hydroxy-4-(4-fluorophenyl)phenoxy]propoxy]phenoxy]benzoic acid] | 62 to 64 °C | 72% | –
CCCc1c(OCCCCCOc2cc(O)c(-c3ccc(F)cc3)cc2CC)cccc1Oc1ccccc1C(=O)O [Example 8, 2-[2-Propyl-3-[5-[2-ethyl-5-hydroxy-4-(4-fluorophenyl)phenoxy]pentoxy]phenoxy]benzoic acid] | 65 °C (dec.) | 57% | –
CCCc1c(OCCCCOc2cc(O)c(-c3ccc(F)cc3)cc2CC)cccc1Oc1ccccc1C(=O)O [Example 9, 2-[2-Propyl-3-[4-[2-ethyl-5-hydroxy-4-(4-fluorophenyl)-phenoxy]butoxy]phenoxy]benzoic acid sesquihydrate] | – | 61% | –
CCc1cc(-c2ccc(F)cc2)c(O)cc1OCCCOc1cccc(Oc2ccccc2C(=O)O)c1CC(C)C [Example 10, 2-[2-(2-Methylpropyl)-3-[3-[2-ethyl-5-hydroxy-4-(4-fluorophenyl)phenoxy]propoxy]phenoxy]benzoic acid] | 48 to 49 °C | 49% | –
CCCCc1c(OCCCOc2cc(O)c(-c3ccc(F)cc3)cc2CC)cccc1Oc1ccccc1C(=O)O [Example 11, 2-[2-Butyl-3-[3-[2-ethyl-5-hydroxy-4-(4-fluorophenyl)phenoxy]propoxy]phenoxy]benzoic acid hydrate] | – | 47% | –
CCc1cc(-c2ccc(F)cc2)c(O)cc1OCCCOc1cccc(Oc2ccccc2C(=O)O)c1Cc1ccccc1 [Example 12, 2-[2-(Phenylmethyl)-3-[3-[2-ethyl-5-hydroxy-4-(4-fluorophenyl)phenoxy]propoxy]phenoxy]benzoic acid] | – | 62% | –
CCCc1c(OCCCOc2cc(O)c(-c3ccc(F)cc3)cc2CC)cccc1C(=O)c1ccccc1C(=O)O [Example 13, 2-[2-Propyl-3-[3-[2-ethyl-5-hydroxy-4-(4-fluorophenyl)phenoxy]propoxy]benzoyl]benzoic acid] | – | 64% | –
CCCc1c(Cc2ccccc2C(=O)O)cccc1OCCCOc1cc(O)c(-c2ccc(F)cc2)cc1CC [Example 14, 2-[[2-Propyl-3-[3-[2-ethyl-5-hydroxy-4-(4-fluorophenyl)phenoxy]propoxy]phenyl]methyl]benzoic acid] | 150 to 151 °C | 58% | –
CCCc1c(OCCCOc2cc(O)c(-c3ccc(F)cc3)cc2CC)cccc1Sc1ccccc1C(=O)O [Example 15, 2-[2-Propyl-3-[3-[2-ethyl-4-(4-fluorophenyl)-5-hydroxyphenoxy]propoxy]thiophenoxy]benzoic acid] | 153 to 155 °C | 73% | –
CCCc1c(OCCCOc2cc(O)c(-c3ccc(F)cc3)cc2CC)cccc1[S+]([O-])c1ccccc1C(=O)O (centres unmarked) [Example 16, 2-[2-Propyl-3-[3-[2-ethyl-4-(4-fluorophenyl)-5-hydroxyphenoxy]propoxy]phenylsulfinyl]benzoic acid] | > 100 °C (dec.) | 35% | –
CCCc1c(OCCCOc2cc(O)c(-c3ccc(F)cc3)cc2CC)cccc1S(=O)(=O)c1ccccc1C(=O)O [Example 17, 2-[2-Propyl-3-[3-[2-ethyl-4-(4-fluorophenyl)-5-hydroxyphenoxy]propoxy]phenylsulfonyl]benzoic acid hydrate] | – | 25% | –
CCCc1c(OCCCOc2ccc(C(C)=O)c(OC)c2CCC)ccc2c1OC(C(=O)O)CC2 (centres unmarked) [Example 18, 8-Propyl-7-[3-[4-acetyl-3-methoxy-2-propylphenoxy]propoxy]-3,4-dihydro-2H-1-benzopyran-2-carboxylic acid] | – | 67% | –
